Reference: patent US7833967B2, “Synthetic antimicrobial polypeptides” (priority 2003, dated 2010)

What follows are substances tested on E. coli TOP10 (assay: Suicide expression system (SES) growth inhibition). Conditions: Table 1; 0.1% inducer (arabinose), pBAD/gIIIA in E. coli TOP10, Bioscreen C 37° C., end point OD450 vs control vector.
Format: cell-based

Q: For “1 (RRRPPRFPPRFPPRFPPRFPPRFPPRF; Synthetic antimicrobial peptide) [compound 1]”, which “Growth inhibition (%)” value is on record?
A: Its value is 48%.

Q: Which “Growth inhibition (%)” value does the source give for “2 (RRRPRFPPRFPPRFPPRFPPRFPPRFP; Synthetic antimicrobial peptide) [compound 2]” here?
A: Its value is 45%.

Q: How did the “Growth inhibition (%)” value turn out when “3 (RRRRFPPRFPPRFPPRFPPRFPPRFPP; Synthetic antimicrobial peptide) [compound 3]” was run?
A: The value was 43%.

Q: With “4 (RRRFPPRFPPRFPPRFPPRFPPRFPPR; Synthetic antimicrobial peptide) [compound 4]” as the substance, how does the “Growth inhibition (%)” value read?
A: The value was 46%.

Q: With “5 (RRRPRPFPRPFPRPFPRPFPRPFPRPF; Synthetic antimicrobial peptide) [compound 5]” as the substance, how does the “Growth inhibition (%)” value read?
A: The value was 57%.

Q: For “6 (RRRRPFPRPFPRPFPRPFPRPFPRPFP; Synthetic antimicrobial peptide) [compound 6]”, which “Growth inhibition (%)” value is on record?
A: Its value is 57%.

Q: For “7 (RRRPFPRPFPRPFPRPFPRPFPRPFPR; Synthetic antimicrobial peptide) [compound 7]”, which “Growth inhibition (%)” value is on record?
A: The value was 39%.

Q: With “8 (RRRFPRPFPRPFPRPFPRPFPRPFPRP; Synthetic antimicrobial peptide) [compound 8]” as the substance, how does the “Growth inhibition (%)” value read?
A: Its value is 38%.

Q: “9 (RRRPPFRPPFRPPFRPPFRPPFRPPFR; Synthetic antimicrobial peptide) [compound 9]” was tested. Which “Growth inhibition (%)” value did it give?
A: The value was 67%.

Q: “10 (RRRPFRPPFRPPFRPPFRPPFRPPFRP; Synthetic antimicrobial peptide) [compound 10]” was tested. Which “Growth inhibition (%)” value did it give?
A: Its value is 78%.

Q: “11 (RRRFRPPFRPPFRPPFRPPFRPPFRPP; Synthetic antimicrobial peptide) [compound 11]” was tested. Which “Growth inhibition (%)” value did it give?
A: Its value is 73%.

Q: How did the “Growth inhibition (%)” value turn out when “12 (RRRRPPFRPPFRPPFRPPFRPPFRPPF; Synthetic antimicrobial peptide) [compound 12]” was run?
A: Its value is 76%.

Same assay, conditions: Table 2; variants of SEQ ID NO:1, re-tested in the Bioscreen C

Q: How did the “Growth inhibition (%)” value turn out when “13 (RRRPPRFPPRFPPRFPPRFPPRFPPRF; Synthetic antimicrobial peptide) [compound 13]” was run?
A: The value was 51%.

Q: For “14 (RRRPPRFPPRIPPRFPPRLPPRIPPRL; Synthetic antimicrobial peptide) [compound 14]”, which “Growth inhibition (%)” value is on record?
A: The value was 90%.

Q: How did the “Growth inhibition (%)” value turn out when “15 (RRRPPRFPPRIPPRLPPRVPPRVPPRL; Synthetic antimicrobial peptide) [compound 15]” was run?
A: Its value is 57%.

Q: “16 (RRRPPRIPPRFPPRVPPRFPPRVPPRV; Synthetic antimicrobial peptide) [compound 16]” was tested. Which “Growth inhibition (%)” value did it give?
A: The value was 98%.

Q: For “17 (RRRPPRIPPRLPPRIPPRFPPRFPPRL; Synthetic antimicrobial peptide) [compound 17]”, which “Growth inhibition (%)” value is on record?
A: Its value is 95%.

Q: “18 (RRRPPRLPPRFPPRFPPRIPPRFPPRI; Synthetic antimicrobial peptide) [compound 18]” was tested. Which “Growth inhibition (%)” value did it give?
A: Its value is 99%.

Q: For “19 (RRRPPRLPPRFPPRFPPRIPPRFPPRI; Synthetic antimicrobial peptide) [compound 19]”, which “Growth inhibition (%)” value is on record?
A: Its value is 78%.

Q: With “20 (RRRPPRLPPRFPPRFPPRVPPRFPPRV; Synthetic antimicrobial peptide) [compound 20]” as the substance, how does the “Growth inhibition (%)” value read?
A: The value was 86%.

Q: Which “Growth inhibition (%)” value does the source give for “21 (RRRPPRLPPRFPPRFPPRVPPRFPPRV; Synthetic antimicrobial peptide) [compound 21]” here?
A: Its value is 86%.

Q: How did the “Growth inhibition (%)” value turn out when “22 (RRRPPRLPPRFPPRFPPRVPPRLPPRF; Synthetic antimicrobial peptide) [compound 22]” was run?
A: Its value is 81%.

Q: Which “Growth inhibition (%)” value does the source give for “23 (RRRPPRLPPRFPPRFPPRVPPRVPPRF; Synthetic antimicrobial peptide) [compound 23]” here?
A: The value was 82%.

Q: “24 (RRRPPRLPPRFPPRFPPRVPPRVPPRF; Synthetic antimicrobial peptide) [compound 24]” was tested. Which “Growth inhibition (%)” value did it give?
A: The value was 90%.

Q: “25 (RRRPPRLPPRFPPRFPPRVPPRVPPRI; Synthetic antimicrobial peptide) [compound 25]” was tested. Which “Growth inhibition (%)” value did it give?
A: Its value is 81%.

Q: How did the “Growth inhibition (%)” value turn out when “26 (RRRPPRVPPRFPPRVPPRFPPRVPLRL; Synthetic antimicrobial peptide) [compound 26]” was run?
A: The value was 86%.

Q: How did the “Growth inhibition (%)” value turn out when “27 (RRRPPRLPPRLPPRLPPRVPPRVPLVSNCSRTKTHLRRGSE; Synthetic antimicrobial peptide) [compound 27]” was run?
A: The value was 90%.

Same assay, conditions: Table 3; variants of SEQ ID NO:5, re-tested in the Bioscreen C

Q: How did the “Growth inhibition (%)” value turn out when “28 (RRRPRPFPRPFPRPFPRPFPRPFPRPF; Synthetic antimicrobial peptide) [compound 28]” was run?
A: Its value is 57%.

Q: With “29 (RRRPRLPRPFPRPVPRPLPRPVPRPI; Synthetic antimicrobial peptide) [compound 29]” as the substance, how does the “Growth inhibition (%)” value read?
A: The value was 63%.

Q: For “30 (RRRPRPFPPPFPRPIPRPFPRPFPRPL; Synthetic antimicrobial peptide) [compound 30]”, which “Growth inhibition (%)” value is on record?
A: The value was 61%.

Q: How did the “Growth inhibition (%)” value turn out when “31 (RRRPRPFPRPFPHPFPRPFPRPIPRPI; Synthetic antimicrobial peptide) [compound 31]” was run?
A: Its value is 73%.

Q: How did the “Growth inhibition (%)” value turn out when “32 (RRRPRPFPRPFPHPIPRPLPRPFPRPI; Synthetic antimicrobial peptide) [compound 32]” was run?
A: The value was 77%.

Q: How did the “Growth inhibition (%)” value turn out when “33 (RRRPRPFPRPFPRPFPRPFPRPFPRPF; Synthetic antimicrobial peptide) [compound 33]” was run?
A: Its value is 79%.

Q: For “34 (RRRPRPFPRPFPRPFPRPFPRPFPRPL; Synthetic antimicrobial peptide) [compound 34]”, which “Growth inhibition (%)” value is on record?
A: The value was 74%.

Q: How did the “Growth inhibition (%)” value turn out when “35 (RRRPRPFPRPFPRPFPRPFPRPIPRPF; Synthetic antimicrobial peptide) [compound 35]” was run?
A: The value was 78%.

Q: For “36 (RRRPRPFPRPFPRPFPRPFPRPIPRPI; Synthetic antimicrobial peptide) [compound 36]”, which “Growth inhibition (%)” value is on record?
A: The value was 77%.

Q: Which “Growth inhibition (%)” value does the source give for “37 (RRRPRPFPRPFPRPFPRPIPRPFPRPV; Synthetic antimicrobial peptide) [compound 37]” here?
A: Its value is 68%.

Q: How did the “Growth inhibition (%)” value turn out when “38 (RRRPRPFPRPFPRPFPRPIPRPVPRPI; Synthetic antimicrobial peptide) [compound 38]” was run?
A: Its value is 64%.

Q: With “39 (RRRPRPFPRPFPRPFPRPLPRPFPRPF; Synthetic antimicrobial peptide) [compound 39]” as the substance, how does the “Growth inhibition (%)” value read?
A: The value was 56%.

Q: Which “Growth inhibition (%)” value does the source give for “40 (RRRPRPFPRPFPRPFPRPVPRPLPRPI; Synthetic antimicrobial peptide) [compound 40]” here?
A: Its value is 69%.

Q: How did the “Growth inhibition (%)” value turn out when “41 (RRRPRPFPRPFPRPFPRPVPRPLPRPV; Synthetic antimicrobial peptide) [compound 41]” was run?
A: Its value is 71%.

Q: How did the “Growth inhibition (%)” value turn out when “42 (RRRPRPFPRPFPRPIPRPFPRPLPRPI; Synthetic antimicrobial peptide) [compound 42]” was run?
A: The value was 66%.

Q: Which “Growth inhibition (%)” value does the source give for “43 (RRRPRPFPRPFPRPIPRPFPRPVPRPV; Synthetic antimicrobial peptide) [compound 43]” here?
A: The value was 68%.

Q: With “44 (RRRPRPFPRPFPRPLPRPFPRPVPRPF; Synthetic antimicrobial peptide) [compound 44]” as the substance, how does the “Growth inhibition (%)” value read?
A: Its value is 95%.
